We go through 18 molecules from ChEMBL document CHEMBL1137709, “Enhanced activity of fluorinated quaternary ammonium surfactants against Pseudomonas aeruginosa” (Eur J Med Chem, 2009).

Broadly, the MIC is the smallest concentration in the dilution series that meets the test's criterion for growth inhibition.

Data set [1] in a line: Critical micelle concentration in aqueous potassium hydroxide assessed as breakpoint of conductivity by conductimeter. The class given is physicochemical. Conditions: buffer.
For the next data set, the system named is Pseudomonas aeruginosa. As to the kind of experiment: Antibacterial activity against Pseudomonas aeruginosa CIP A22 after 24 hrs. The class given is functional. Conditions: CIP A22, 24 h.

For `C[N+](C)(CCCCCC[N+](C)(C)CC(=O)NCCC(F)(F)C(F)(F)C(F)(F)C(F)(F)C(F)(F)C(F)(F)F)CC(=O)NCCC(F)(F)C(F)(F)C(F)(F)C(F)(F)C(F)(F)C(F)(F)F.[Br-].[Br-]`, the CMC in data set [1] amounted to 0.588 mM. The MIC in the data set with Pseudomonas aeruginosa was 5.52 µM.

Turning to `C[N+](C)(CCCCCCCCCCCC[N+](C)(C)CC(=O)NCCC(F)(F)C(F)(F)C(F)(F)C(F)(F)C(F)(F)C(F)(F)F)CC(=O)NCCC(F)(F)C(F)(F)C(F)(F)C(F)(F)C(F)(F)C(F)(F)F.[Br-].[Br-]`, in data set [1], the CMC amounted to 0.269 mM. The MIC with Pseudomonas aeruginosa is 2.76 µM. The like results for `C[N+](C)(CCC[N+](C)(C)CC(=O)NCCC(F)(F)C(F)(F)C(F)(F)C(F)(F)C(F)(F)C(F)(F)F)CC(=O)NCCC(F)(F)C(F)(F)C(F)(F)C(F)(F)C(F)(F)C(F)(F)F.[Br-].[Br-]` were, in that order, 0.546 mM and 5.19 µM. As for `C[N+](C)(CCCCCCCCCC[N+](C)(C)CC(=O)NCCC(F)(F)C(F)(F)C(F)(F)C(F)(F)C(F)(F)C(F)(F)F)CC(=O)NCCC(F)(F)C(F)(F)C(F)(F)C(F)(F)C(F)(F)C(F)(F)F.[Br-].[Br-]`, the CMC in data set [1] amounted to 0.296 mM. Moreover, the MIC against Pseudomonas aeruginosa came to 2.83 µM. On to `C[N+](C)(CCCC[N+](C)(C)CCOC(=O)NCCC(F)(F)C(F)(F)C(F)(F)C(F)(F)C(F)(F)C(F)(F)F)CCOC(=O)NCCC(F)(F)C(F)(F)C(F)(F)C(F)(F)C(F)(F)C(F)(F)F.[Br-].[Br-]`, for which, in data set [1], the CMC worked out at 0.54 mM. This molecule also showed a minimum inhibitory concentration (MIC) against Pseudomonas aeruginosa of 3.69 µM.

Turning to `C[N+](C)(CC[N+](C)(C)CC(=O)NCCC(F)(F)C(F)(F)C(F)(F)C(F)(F)C(F)(F)C(F)(F)F)CC(=O)NCCC(F)(F)C(F)(F)C(F)(F)C(F)(F)C(F)(F)C(F)(F)F.[Br-].[Br-]`, the CMC in data set [1] amounted to 0.591 mM. Also, inhibition of growth in the data set with Pseudomonas aeruginosa (MIC) required 5.8 µM. `C[N+](C)(CCCC[N+](C)(C)CSCCC(F)(F)C(F)(F)C(F)(F)C(F)(F)C(F)(F)C(F)(F)F)CSCCC(F)(F)C(F)(F)C(F)(F)C(F)(F)C(F)(F)C(F)(F)F.[Br-].[Br-]`: the solubility result in data set [1] is on record as “Insoluble”. For the same molecule, the MIC against Pseudomonas aeruginosa is 4.59 µM.

On to `C[N+](C)(CCCCCCCC[N+](C)(C)CC(=O)NCCC(F)(F)C(F)(F)C(F)(F)C(F)(F)C(F)(F)C(F)(F)F)CC(=O)NCCC(F)(F)C(F)(F)C(F)(F)C(F)(F)C(F)(F)C(F)(F)F.[Br-].[Br-]`, for which, in data set [1], the CMC worked out at 0.361 mM. The same molecule displayed an MIC in the data set on Pseudomonas aeruginosa of 2.89 µM. For `C[N+](C)(CCCC[N+](C)(C)CCC(F)(F)C(F)(F)C(F)(F)C(F)(F)C(F)(F)C(F)(F)F)CCC(F)(F)C(F)(F)C(F)(F)C(F)(F)C(F)(F)C(F)(F)F.[Br-].[Br-]`, the CMC in data set [1] came out at 2.39 mM. For the same molecule, the MIC in the data set on Pseudomonas aeruginosa stood at 7.31 µM.

Turning to `O=C(C[N+]12CC[N+](CC(=O)NCCC(F)(F)C(F)(F)C(F)(F)C(F)(F)C(F)(F)C(F)(F)F)(CC1)CC2)NCCC(F)(F)C(F)(F)C(F)(F)C(F)(F)C(F)(F)C(F)(F)F.[Br-].[Br-]`, in data set [1], the CMC was determined as 0.466 mM. In the data set with Pseudomonas aeruginosa, this molecule came in with an MIC of 5.82 µM. The matching figures for `C[N+](C)(C/C=C/C[N+](C)(C)CC(=O)NCCC(F)(F)C(F)(F)C(F)(F)C(F)(F)C(F)(F)C(F)(F)F)CC(=O)NCCC(F)(F)C(F)(F)C(F)(F)C(F)(F)C(F)(F)C(F)(F)F.[Br-].[Br-]`: 0.559 mM and 3.67 µM. The matching figures for `C[N+](C)(CCCC[N+](C)(C)CC(=O)NCCC(F)(F)C(F)(F)C(F)(F)C(F)(F)C(F)(F)C(F)(F)F)CC(=O)NCCC(F)(F)C(F)(F)C(F)(F)C(F)(F)C(F)(F)C(F)(F)F.[Br-].[Br-]`: 0.758 mM and 5.94 µM. The matching figures for `C[N+](C)(CC(=O)NCCC(F)(F)C(F)(F)C(F)(F)C(F)(F)C(F)(F)C(F)(F)F)CC(O)C[N+](C)(C)CC(=O)NCCC(F)(F)C(F)(F)C(F)(F)C(F)(F)C(F)(F)C(F)(F)F.[Br-].[Br-]`: 0.541 mM and 9.25 µM. Consider `C[N+](C)(CCCC[N+](C)(C)CCNC(=O)NCCC(F)(F)C(F)(F)C(F)(F)C(F)(F)C(F)(F)C(F)(F)F)CCNC(=O)NCCC(F)(F)C(F)(F)C(F)(F)C(F)(F)C(F)(F)C(F)(F)F.[Br-].[Br-]`, for which the CMC in data set [1] came out at 0.523 mM. 5.38 µM was the least that counted as inhibitory in the data set on Pseudomonas aeruginosa (MIC). The matching figures for `C[N+](C)(CCSSCC[N+](C)(C)CC(=O)NCCC(F)(F)C(F)(F)C(F)(F)C(F)(F)C(F)(F)C(F)(F)F)CC(=O)NCCC(F)(F)C(F)(F)C(F)(F)C(F)(F)C(F)(F)C(F)(F)F.[Br-].[Br-]`: 0.451 mM and 4.95 µM. Consider `CCCCCCCCNC(=O)C[N+](C)(C)CCCC[N+](C)(C)CC(=O)NCCCCCCCC`, for which the MIC in the data set on Pseudomonas aeruginosa came out at 51.2 µM.

Regarding `C[N+](C)(CCCC[N+](C)(C)CCNC(=O)CCC(F)(F)C(F)(F)C(F)(F)C(F)(F)C(F)(F)C(F)(F)F)CCNC(=O)CCC(F)(F)C(F)(F)C(F)(F)C(F)(F)C(F)(F)C(F)(F)F.[Br-].[Br-]`, the CMC in data set [1] was 0.547 mM. In addition, it took 1.88 µM to inhibit growth in the data set on Pseudomonas aeruginosa (MIC). As for `CCCCCCCCCCCC[N+](C)(C)CCOc1ccccc1` [DOMIPHEN BROMIDE], in the data set with Pseudomonas aeruginosa, the minimum inhibitory concentration (MIC) was 40.8 µM.
